According to US4512986A, “Progrestationally active steroids” (priority 1983, dated 1985):
Where two headings read alike, the source gives them in different places.

Experiments:
[1] = tested on: endometrium of estrogen-primed ovariectomized or climacteric women; settings: cited from earlier work
[2] = tested on: estrogen-primed immature rabbits; settings: cited from earlier work
cycling rats [3] = settings: literature; cited from earlier work
[4] = target: T1, Cytosol Progesterone Receptor of the Estrogen-primed Immature Rabbit Uterus (Oryctolagus cuniculus, UniProt P06186); test: Relative binding affinity for progesterone receptor (competition with 3H-progesterone); design: species or system rabbit (New Zealand White); settings: 16-18 hour incubation, progesterone = 100
T1 construct: cytosol progesterone receptor of the estrogen-primed immature rabbit uterus; tissue Dutchland Laboratories, Inc., Denver, Pa (animals); host or cells: uterus cytosol of estradiol-treated immature female New Zealand White rabbits
T1 sequence (P06186 1-930): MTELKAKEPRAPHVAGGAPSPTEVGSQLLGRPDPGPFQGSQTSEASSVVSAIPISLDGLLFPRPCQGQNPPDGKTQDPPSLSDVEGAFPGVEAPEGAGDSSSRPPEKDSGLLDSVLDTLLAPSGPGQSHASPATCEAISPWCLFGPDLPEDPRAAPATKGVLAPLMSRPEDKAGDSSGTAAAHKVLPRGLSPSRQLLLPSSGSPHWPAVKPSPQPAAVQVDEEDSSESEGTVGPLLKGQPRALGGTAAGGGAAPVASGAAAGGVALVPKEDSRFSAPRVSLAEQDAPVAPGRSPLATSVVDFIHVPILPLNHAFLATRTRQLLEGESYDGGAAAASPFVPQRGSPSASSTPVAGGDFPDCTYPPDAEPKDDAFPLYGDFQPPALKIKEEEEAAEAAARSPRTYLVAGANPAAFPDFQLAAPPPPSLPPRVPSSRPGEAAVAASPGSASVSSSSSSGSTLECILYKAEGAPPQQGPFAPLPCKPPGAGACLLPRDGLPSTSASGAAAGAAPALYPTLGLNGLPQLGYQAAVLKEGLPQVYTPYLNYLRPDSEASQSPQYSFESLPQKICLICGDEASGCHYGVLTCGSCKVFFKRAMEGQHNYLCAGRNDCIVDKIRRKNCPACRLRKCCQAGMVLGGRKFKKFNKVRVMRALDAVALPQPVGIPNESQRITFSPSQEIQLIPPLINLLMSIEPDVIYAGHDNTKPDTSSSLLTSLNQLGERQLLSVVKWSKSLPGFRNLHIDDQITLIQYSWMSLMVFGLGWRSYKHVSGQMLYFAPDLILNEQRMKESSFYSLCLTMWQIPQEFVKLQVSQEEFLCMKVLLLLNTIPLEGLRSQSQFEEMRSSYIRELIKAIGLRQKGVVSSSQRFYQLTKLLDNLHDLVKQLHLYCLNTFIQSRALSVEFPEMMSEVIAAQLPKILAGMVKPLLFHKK
Method: RBA values recorded at 0° C. after short incubation times (e.g., 2 hr) mainly reflect differences in the association rate constants of the competing ligands, whereas those measured after long incubation times (e.g., 16 to 24 hr) and/or higher temperatures predominantly are influenced by differences in the dissociation rate constants of the competing ligands. RBA's determined after short incubation times primarily reflect the association of the competitor compared to the natural hormone. Conversely, RBA's measured after long incubation times reflect the dissociation rate of the competitor compared to the natural hormone.
The assay components are combined, allowed to equilibrate, and unbound radioactivity removed by charcoal adsorption.
Animal species. Immature female New Zealand White rabbits weighing 0.8 to 1.0 kg (Dutchland Laboratories, Inc., Denver, Pa).
Pretreatment. Subcutaneous treatment with 15 μg 17β-estradiol/0.6 ml sesame oil each morning (0830 to 0930 hr) for three days. Animals sacrificed 24 hr after final injection.
Tissue. Uterus; each uterus weighed about 1.0 g and two or three uteri were pooled for each assay.
Buffer. (A) 0.01M TES, pH 7.4, 1 mM EDTA, 0.012M thioglycerol and 30% glycerol for cytosol preparation and ^3 H-steroid, unlabeled hormone and compound solutions. (B) 0.01M TES, pH 7.4, 1 mM EDTA and 0.012M thioglycerol for charcoal solution.
Homogenization. Five or six 5-second bursts with 30 second cooling periods between bursts using Brinkman Polytron Pt. 10 at 3.5 rheostat setting.
Temperature. 0°-4° C. for all steps.
Centrifugation. 45,000 rpm for 1 hr, 50 Ti rotor, Beckman L8-80 ultracentrifuge.
Incubation. 16-18 hr at 4°-6° C.
Concentations. 1×10^-10 M to 1×10^-5 M (7 concentrations).
Method. Charcoal adsorption method used to remove unbound radioactivity. Five-tenths ml of dextran-coated charcoal (0.5% Norit A and 0.05% dextran T-70) added to all tubes except total radioactivity tubes (0.5 ml buffer [B] added), tubes vortexed 3-5 sec, allowed to sit for 10 minutes and centrifuged 10 minutes at 2000 rpm in Beckman TJ-6 centrifuge at 0°-4° C.
Data Interpretation. […] The relative binding affinity (RBA) of each compound was calculated by using the following equation. [formula] where

[5] = in vivo; cited from earlier work
[6] = tested on: curettage specimens of endometrial cancer patients; settings: i.m. twice weekly 3-7 weeks after polyestradiol phosphate 80 mg; all 12 patients; cited from earlier work
[7] = target: T1, Cytosol Progesterone Receptor of the Estrogen-primed Immature Rabbit Uterus; settings: relative to progesterone = 100; literature; cited from earlier work
[8] = general knowledge; cited from earlier work
[9] = tested on: uterine endometrium of estrone-primed immature rabbits; test: Clauberg assay (progestational activity, McPhail); format: in vivo, rabbit (New Zealand White); settings: for McPhail Index (0-4) (X ± S.D.): 0 none, 4 maximal
cycling rats [10] = test: Blockade of ovulation in rats; format: in vivo, rat (Charles River CD); settings: for No. Rats Ovulated (of rats treated) / No. of Oviductal Eggs in Rats that Ovulated (X ± S.D.): single sc
Description: The treated rats were sacrificed on the morning of expected estrus and eggs, if present, were flushed from the oviducts and counted. | *This assay employs cycling Charles River CD rats. For methods refer to | Beattie, C. W. and A. Corbin, Endocrinology 97, 885, 1975. […] | diestrus. Rats were sacrificed 43 to 44 hr later on the morning of | expected estrus. Eggs, if present, were flushed from oviducts and counted | under a stereomicroscope.

[11] = tested on: androgen target organs of castrate immature male rats; test: Anti-androgenic activity in the castrate immature rat assay; format: in vivo
Method: The oral anti-androgenic activity of 6-methyl-6-dehydro-17α-ethynylprogesterone was evaluated in the castrate immature male rat assay [Lerner et al., Proc. Soc. […] The assay is briefly described in the footnotes to Table 11.
*This assay employs castrate immature rats. For methods refer to Lerner,
L. J., A. Bianchi and A. Borman, Proc. Soc.
**Groups of rats (7/group) were given daily injections of 0.3 ml sesame
oil (control) or compound (in 0.3 ml sesame oil) for 7 days. Some groups
also concurrently received progestational compounds by the sc or oral
route of administration in order to evaluate antiandrogenic activity. One
day after the final doses, the animals were sacrificed and the androgen
target organs indicated were weighed.
***Statistically significant (p < 0.05) lower organ weights versus the
testosterone, sc, (400 μg/rat/day) group as determined by Analysis of
Variance coupled with Duncan's Multiple Range Test.

[12] = oral, 100 μg/rabbit daily, listed as 6α-Methyl-17α-acetoxyprogesterone
[13] = sc 25 μg/rat daily + testosterone sc 400
[14] = sc 100 μg/rat daily + testosterone sc 400
[15] = sc 400 μg/rat daily + testosterone sc 400

C#C[C@]1(O)CC[C@H]2[C@@H]3CCC4=CC(=O)CC[C@@H]4[C@H]3CC[C@@]21CC (relative stereo) [(±)Norgestrel]
Threshold or effective dose, Kaufman Assay ([1]; oral): 12 mg/cycle
Threshold or effective dose, Clauberg Assay ([2]; oral): 0.03-0.1 mg/animal
Threshold or effective dose, Clauberg Assay ([2]; s.c. (i.m.)): 0.03 mg/animal
effectiveness in suppressing ovulation relative to progesterone (Beattie and Corbin 1975), in words (cycling rats [3]): five times as effective as progesterone

CC(=O)O[C@]1(C(C)=O)CC[C@H]2[C@@H]3CCC4=CC(=O)CC[C@]4(C)[C@H]3CC[C@@]21C [17α-Acetoxyprogesterone (Prodox ®), 17α-Acetoxyprogesterone, reference compound]
RBA ([4]; Assay 5): 122%
RBA ([4]; Assay 6): 114%
thromboembolic episodes, in words [5]: higher rate of thromboembolic episodes

CCCCCC(=O)O[C@]1(C(C)=O)CC[C@H]2[C@@H]3CCC4=CC(=O)CC[C@]4(C)[C@H]3CC[C@@]21C [17α-hydroxyprogesterone caproate]
inhibition of nucleic acid synthesis, in words [6]: Significant inhibition of nucleic acid synthesis

CCCCCC(=O)O[C@]1(C(C)=O)CC[C@H]2[C@@H]3CCC4=CC(=O)CC[C@@H]4[C@H]3CC[C@@]21C [19-nor-17α-hydroxyprogesterone caproate]
inhibition of nucleic acid synthesis, in words [6]: Significant inhibition of nucleic acid synthesis

CC(=O)[C@H]1CC[C@H]2[C@@H]3CCC4=CC(=O)CC[C@@H]4[C@H]3CC[C@]12C [19-norprogesterone]
RBA (Kontula et al. 1975) [7]: 258

CC(=O)O[C@]1(C(C)=O)CC[C@H]2[C@@H]3C[C@H](C)C4=CC(=O)CC[C@]4(C)[C@H]3CC[C@@]21C [Medroxyprogesterone Acetate, 6α-Methyl-17α-acetoxyprogesterone, reference compound]
oral progestational activity, in words [8]: potent orally active progestational compounds
Uterine Weight (X ± S.D.) ([9]; oral, 5 μg/rabbit daily): 1.08 ± 0.01 g
McPhail Index (0-4) (X ± S.D.) ([9]; oral, 5 μg/rabbit daily): 0.29 ± 0.06
Uterine Weight (X ± S.D.) ([9]; oral, 10 μg/rabbit daily): 1.35 ± 0.34 g
McPhail Index (0-4) (X ± S.D.) ([9]; oral, 10 μg/rabbit daily): 0.71 ± 0.06
Uterine Weight (X ± S.D.) ([9]; oral, 25 μg/rabbit daily): 1.12 ± 0.19 g
McPhail Index (0-4) (X ± S.D.) ([9]; oral, 25 μg/rabbit daily): 0.25 ± 0.10
Uterine Weight (X ± S.D.) ([9]; oral, 50 μg/rabbit daily): 2.82 ± 0.92 g
McPhail Index (0-4) (X ± S.D.) ([9]; oral, 50 μg/rabbit daily): 3.00 ± 0.83
Uterine Weight (X ± S.D.) ([9]; oral, 100 μg/rabbit daily): 2.65 ± 0.35 g
McPhail Index (0-4) (X ± S.D.) ([9]; oral, 100 μg/rabbit daily): 3.90 ± 0.13
McPhail Index (0-4) (X ± S.D.) [9, 12]: 2.66 ± 1.10
Uterine Weight (X ± S.D.) [9, 12]: 2.11 ± 1.28 g
Uterine Weight (X ± S.D.) ([9]; oral, 200 μg/rabbit daily): 3.30 ± 0.41 g
McPhail Index (0-4) (X ± S.D.) ([9]; oral, 200 μg/rabbit daily): 4.00 ± 0.00
Uterine Weight (X ± S.D.) ([9]; oral, 400 μg/rabbit daily): 3.73 ± 0.61 g
McPhail Index (0-4) (X ± S.D.) ([9]; oral, 400 μg/rabbit daily): 4.00 ± 0.00
RBA ([4]; Assay 4): 57%
RBA ([4]; Assay 5): 133%
RBA ([4]; Assay 6): 143%
Threshold or effective dose, Kaufman Assay ([1]; oral): 40-70 mg/cycle
Threshold or effective dose, Clauberg Assay ([2]; oral): 0.01-0.03 mg/animal
Threshold or effective dose, Clauberg Assay ([2]; s.c. (i.m.)): 0.01-0.03 mg/animal

CC(=O)[C@H]1CC[C@H]2[C@@H]3CCC4=CC(=O)CC[C@]4(C)[C@H]3CC[C@]12C [Progesterone]
ovulation, in words (cycling rats [10]; 500 μg progesterone, 100, 250 or 500 μg 17α-ethynylprogesterone): ovulation was blocked in most rats
ovulation, in words (cycling rats [10]; 100 or 250 μg progesterone, 50 μg 17α-ethynylprogesterone): ovulated in a normal fashion
No. Rats Ovulated (of rats treated) (cycling rats [10]; 100 μg/rat): 5/5
No. of Oviductal Eggs in Rats that Ovulated (X ± S.D.) (cycling rats [10]; 100 μg/rat): 7.8 ± 3.8
No. Rats Ovulated (of rats treated) (cycling rats [10]; 250 μg/rat): 4/5
No. of Oviductal Eggs in Rats that Ovulated (X ± S.D.) (cycling rats [10]; 250 μg/rat): 7.0 ± 3.8
No. Rats Ovulated (of rats treated) (cycling rats [10]; 500 μg/rat): 1/4
No. of Oviductal Eggs in Rats that Ovulated (X ± S.D.) (cycling rats [10]; 500 μg/rat): 9.0
oral progestational activity, in words [8]: only weakly active when taken orally
Uterine Weight (X ± S.D.) ([9]; sc, 50 μg/rabbit daily): 1.09 ± 0.09 g
Uterine Weight (X ± S.D.) ([9]; sc, 100 μg/rabbit daily): 1.64 ± 0.23 g
Levator Ani weight (X ± S.D.) [11, 13]: 54 ± 15 mg
Seminal Vesicles weight (X ± S.D.) [11, 13]: 157 ± 19 mg
Ventral Prostate weight (X ± S.D.) [11, 13]: 71 ± 28 mg
Levator Ani weight (X ± S.D.) [11, 14]: 58 ± 15 mg
Ventral Prostate weight (X ± S.D.) [11, 14]: 80 ± 27 mg
Levator Ani weight (X ± S.D.) [11, 15]: 59 ± 14 mg
Seminal Vesicles weight (X ± S.D.) [11, 15]: 162 ± 26 mg
Ventral Prostate weight (X ± S.D.) [11, 15]: 60 ± 26 mg
anti-androgenic activity, in words ([11]; with testosterone sc 400 μg/rat/day, doses up to 400 μg/rat/day (progestagen oral; progesterone sc)): inactive
Threshold or effective dose, Kaufman Assay ([1]; i.m.): 200 mg/cycle
RBA (Kontula et al. 1975) [7]: 100
Threshold or effective dose, Clauberg Assay ([2]; oral): 10.0 mg/animal
Threshold or effective dose, Clauberg Assay ([2]; s.c. (i.m.)): 0.5 mg/animal
